Experimental findings from ChEMBL document CHEMBL5380841, “Discovery and Binding Mechanism of Pyrazoloisoquinoline-Based Novel β-Arrestin Inverse Agonists of the Kappa-Opioid Receptor” (J Med Chem, 2023) are described below.

The structures appear in SMILES notation. The source made the active and inactive calls. The rule behind the calls is not given here.

In data set [1] the target is Mu-type opioid receptor (Homo sapiens) (UniProt P35372). Put plainly: Inverse agonist activity at MOR (unknown origin) expressed in HEK293T cells assessed as beta arrestin-2 recruitment upto 10 uM incubated for 20 mins by NanoBiT assay. In kind it is functional, cell-based. In general terms: Recruitment of arrestin is a read-out of receptor activation apart from second messengers.

Data set [2] deals with T1, Kappa-type opioid receptor (Homo sapiens, UniProt P41145). Put plainly: Inverse agonist activity at human KOR expressed in human HTLA cells assessed as beta arrestin-2 recruitment by ONE-Glo luciferase assay. It counts as functional, cell-based.
The target of data set [3] is T1, Kappa-type opioid receptor. Put plainly: Inverse agonist activity at human KOR expressed in human HTLA cells assessed as beta arrestin-2 recruitment at 10 uM by ONE-Glo luciferase assay relative to 1-(5-(2-Chlorophenyl)-7,8-dimethoxy-3-(3-methoxybenzyl)-3H-pyrazolo(3,4-c)isoquinolin-1-yl)-N-(3-methoxybenzyl)-methanamine. In kind it is functional, cell-based.
Data set [4] is described as follows: Permeability of the compound across blood brain barrier at pH 7.4 at 50 uM incubated for 4 hrs by PAMPA assay. In kind it is ADME. The following applies: read-out: permeability. (In general: In PAMPA a lipid-coated filter parts donor from acceptor wells.)
The target of data set [5] is T1, Kappa-type opioid receptor. Put plainly: Inverse agonist activity at human KOR expressed in human HTLA cells assessed as beta arrestin-2 recruitment upto 10 uM by ONE-Glo luciferase assay. It counts as functional, cell-based.
Data set [6] deals with Mu-type opioid receptor (Homo sapiens) (UniProt P35372). Briefly: Displacement of [3H]naltrindole from MOR (unknown origin) upto 1 uM by radioligand binding assay relative to control. (In general: In a radioligand displacement assay an active substance lowers the binding of a labelled ligand.)
For data set [7], the target named is T1, Kappa-type opioid receptor. Briefly: Displacement of [3H]diprenorphine from human KOR expressed in HEK293 cells incubated for 60 mins by liquid scintillation method. It counts as cell-based.
In data set [8] the target is T2, Delta-type opioid receptor (Homo sapiens, UniProt P41143). Briefly: Inverse agonist activity at human DOR expressed in human HTLA cells assessed as beta arrestin-2 recruitment by ONE-Glo luciferase assay. It counts as functional, cell-based.
In data set [9] the target is T1, Kappa-type opioid receptor. Put plainly: Displacement of [3H]diprenorphine from human KOR expressed in HEK293 cells assessed as maximum inhibition at 10 uM incubated for 60 mins by liquid scintillation method relative to control. In kind it is cell-based. The following applies: filed as inverse agonist.
The species named for data set [10] is Homo sapiens. Briefly: Selectivity ratio of EC50 for human DOR expressed in human HTLA cells assessed as beta arrestin-2 recruitment to EC50 for human KOR expressed in human HTLA cells assessed as beta arrestin-2 recruitment. It counts as cell-based.
Data set [11] concerns the target T2, Delta-type opioid receptor. Briefly: Displacement of [3H]naltrindole from DOR (unknown origin) upto 1 uM by radioligand binding assay relative to control.
Data set [12] has as its target T1, Kappa-type opioid receptor. Put plainly: Displacement of [3H]diprenorphine from human KOR expressed in HEK293 cells assessed as inhibition constant incubated for 60 mins by liquid scintillation method. It counts as cell-based.
Data set [13] has as its target Mu-type opioid receptor (Homo sapiens) (UniProt P35372). Put plainly: Inverse agonist activity at human MOR assessed as cAMP inhibition pretreated for 5 mins followed by forskolin treatment measured after 15 mins by Glo-Sensor cAMP cell based assay. The following applies: time 20.0 min. In kind it is functional.
Data set [14] deals with T1, Kappa-type opioid receptor. Briefly: Inverse agonist activity at human KOR assessed as cAMP inhibition pretreated for 5 mins followed by forskolin treatment measured after 15 mins by Glo-Sensor cAMP cell based assay. In kind it is functional. The following applies: time 20.0 min.
Data set [15] concerns the target T2, Delta-type opioid receptor. Briefly: Inverse agonist activity at human DOR assessed as cAMP inhibition pretreated for 5 mins followed by forskolin treatment measured after 15 mins by Glo-Sensor cAMP cell based assay. It counts as functional. The following applies: time 20.0 min.

Sequence of Mu-type opioid receptor (Homo sapiens) (P35372 whole entry): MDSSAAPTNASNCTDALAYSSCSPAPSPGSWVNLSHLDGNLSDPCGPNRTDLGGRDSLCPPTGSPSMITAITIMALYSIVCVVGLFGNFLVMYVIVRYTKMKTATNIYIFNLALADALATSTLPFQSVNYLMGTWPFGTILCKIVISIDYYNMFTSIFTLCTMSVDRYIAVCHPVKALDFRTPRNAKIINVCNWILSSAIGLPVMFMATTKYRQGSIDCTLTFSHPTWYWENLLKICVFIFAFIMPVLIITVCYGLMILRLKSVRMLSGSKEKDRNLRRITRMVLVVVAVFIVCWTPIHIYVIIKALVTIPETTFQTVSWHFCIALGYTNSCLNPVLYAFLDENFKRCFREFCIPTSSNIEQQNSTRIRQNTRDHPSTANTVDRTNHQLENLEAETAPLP
T1 sequence (P41145 whole entry): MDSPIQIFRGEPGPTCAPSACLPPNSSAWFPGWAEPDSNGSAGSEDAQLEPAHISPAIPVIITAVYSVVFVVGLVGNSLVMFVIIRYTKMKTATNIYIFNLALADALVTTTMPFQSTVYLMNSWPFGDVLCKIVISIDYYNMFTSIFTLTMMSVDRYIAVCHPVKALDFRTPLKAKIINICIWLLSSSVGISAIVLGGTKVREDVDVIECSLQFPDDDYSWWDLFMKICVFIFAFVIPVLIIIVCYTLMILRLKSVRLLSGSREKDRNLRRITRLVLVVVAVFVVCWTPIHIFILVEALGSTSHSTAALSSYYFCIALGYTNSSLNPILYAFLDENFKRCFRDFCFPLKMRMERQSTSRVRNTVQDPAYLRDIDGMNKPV
T2 sequence (P41143 whole entry): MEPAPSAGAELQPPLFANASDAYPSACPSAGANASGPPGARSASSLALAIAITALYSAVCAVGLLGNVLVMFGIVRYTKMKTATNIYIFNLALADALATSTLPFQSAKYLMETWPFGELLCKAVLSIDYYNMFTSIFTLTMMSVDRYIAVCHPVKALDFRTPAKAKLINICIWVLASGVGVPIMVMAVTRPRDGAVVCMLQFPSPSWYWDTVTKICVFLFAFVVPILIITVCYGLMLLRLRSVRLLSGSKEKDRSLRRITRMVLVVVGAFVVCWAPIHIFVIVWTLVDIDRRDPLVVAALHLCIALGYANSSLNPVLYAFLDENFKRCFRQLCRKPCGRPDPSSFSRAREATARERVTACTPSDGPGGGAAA

Turning to `COc1cc2c(-c3ccccc3Cl)nc3c(c(CNCc4cccc(Oc5ccccc5)c4)nn3CC3CCNCC3)c2cc1OC`, the outcome in data set [1] was inactive. Further, the EC50 in [2] came out at 2670 nM. The Emax in [3] was -95.1%.

Regarding `COc1cccc(Cn2nc(CNCc3ccc(OC)c(OC)c3)c3c4cc(OC)c(OC)cc4c(-c4ccccc4Cl)nc32)c1`, the outcome in data set [1] was inactive. Besides, the concentration giving a half-maximal response (EC50) in [2] came out at 643 nM. Further, the Emax in [3] is -103%.

`CNC(=C[N+](=O)[O-])NCCSCc1ccc(CN(C)C)o1.Cl` [RANITIDINE HYDROCHLORIDE]: in [4], the Papp at 4 h, 50 µM amounted to 0.12 ×10⁻⁶ cm/s.

On to `COc1cccc(Cn2nc(CNCc3cccc4ccccc34)c3c4cc(OC)c(OC)cc4c(-c4ccccc4Cl)nc32)c1`, for which the result in data set [1] was inactive. The EC50 in [2] was 430 nM. Also, the Emax in [3] was -96.7%.

With `CC(=O)[C@H]1CC[C@H]2[C@@H]3CCC4=CC(=O)CC[C@]4(C)[C@H]3CC[C@]12C` [PROGESTERONE], in data set [4], the Papp at 4 h, 50 µM was found to be 37.8 ×10⁻⁶ cm/s.

With `COc1cccc(Cn2nc(CNCc3ccc(Oc4ccccc4)cc3)c3c4cc(OC)c(OC)cc4c(-c4ccccc4Cl)nc32)c1`, in data set [1], the result was inactive. In data set [2], the EC50 was found to be 338 nM. For the same compound, the Emax in data set [3] was -91.8%.

Regarding `COc1cccc(CNCc2nn(Cc3cccc(OC)c3)c3ncc4cc(OC)c(OC)cc4c23)c1`, the result in data set [1], in data set [3] and in [5] was inactive.

Take `COc1cccc(Cn2nc(CNCc3cc4ccccc4[nH]3)c3c4cc(OC)c(OC)cc4c(-c4ccccc4Cl)nc32)c1`: in data set [1], the result was inactive. In addition, in [2], the concentration giving a half-maximal response (EC50) stood at 339 nM. Further, the Emax in data set [3] is -98.3%.

For the compound `COc1cccc(Cn2nc(CNCc3ccc4ccccc4c3)c3c4cc(OC)c(OC)cc4c(-c4ccccc4Cl)nc32)c1`, the result in data set [1] was inactive. Also, the EC50 in data set [2] turned out to be 94.3 nM. In data set [3], the Emax was -97.6%.

On to `COc1cccc(CNCc2n[nH]c3nc(-c4ccccc4Cl)c4cc(OC)c(OC)cc4c23)c1`, for which the outcome in data set [1], in [3] and in data set [5] was inactive.

As for `COc1cccc(Cn2nc(CNCc3cccc(OCc4ccccc4)c3)c3c4cc(OC)c(OC)cc4c(-c4ccccc4Cl)nc32)c1`, the results for the inhibition in data set [6] and in data set [11] were 20% and 10%, respectively. Also, the outcome in [1] was inactive. Besides, in data set [7], the IC50 came out at 250 nM. Further, the half-maximal effective concentration (EC50) amounted to 9.33 nM in data set [2] and 207 nM in data set [8]. Also, the Emax in data set [3] was -103%. Besides, the Imax in data set [9] stood at 72%. The Ratio EC50 in [10] is 22. The Ki in [12] is 100 nM.

`COc1cccc(CCNCc2nn(Cc3cccc(OC)c3)c3nc(-c4ccccc4Cl)c4cc(OC)c(OC)cc4c23)c1`: the result in data set [1] was inactive. Moreover, the EC50 in data set [2] was 1060 nM. In [3], the Emax was -72.8%.

In the case of `O=C(Cc1ccc(Cl)c(Cl)c1)N1CCCC[C@H]1CN1CCCC1`, the EC50 in data set [2] was found to be 10.5 nM. For the same compound, the Emax in data set [3] was -100%.

Turning to `COc1cc2c(-c3ccccc3Cl)nc3c(c(CNCc4cccc(Oc5ccccc5)c4)nn3CC3CCN(C(=O)OC(C)(C)C)CC3)c2cc1OC`, the outcome in data set [1] was inactive. Besides, the EC50 in data set [2] came to 674 nM. Further, in data set [3], the Emax is -99.4%.

With `COc1cc2c(-c3ccccc3Cl)nc3c(c(CNCc4cccc(Oc5ccccc5)c4)nn3Cc3cccc(Cl)c3)c2cc1OC`, the outcome in [1] was inactive. Also, in [2], the EC50 turned out to be 105 nM. For the same compound, the Emax in [3] is -101%.

On to `COc1cccc(CNCc2nn(Cc3cccc(OC)c3)c3nc(-c4ccccc4Cl)c4cc(OC)c(OC)cc4c23)c1`, for which the result in data set [1], in [13], in [14] and in data set [15] was inactive. The EC50 stood at 127 nM in data set [2] and 483 nM in data set [8].

Consider `COc1cccc(Cn2nc(CNc3ccc4ccccc4c3)c3c4cc(OC)c(OC)cc4c(-c4ccccc4Cl)nc32)c1`, for which the result in [1], in data set [3] and in data set [5] was inactive.

`COc1cccc(Cn2nc(CNCc3cccc(Oc4ccccc4)c3)c3c4cc(OC)c(OC)cc4c(-c4ccccc4Cl)nc32)c1`: in [1], the outcome was inactive. Moreover, the EC50 in data set [2] turned out to be 9.1 nM; in [8], 49.5 nM. Besides, the Emax in data set [3] was -100%. Moreover, the Ratio EC50 in data set [10] stood at 5.

As for `COc1cccc(Cn2nc(CNCc3ccccc3Oc3ccccc3)c3c4cc(OC)c(OC)cc4c(-c4ccccc4Cl)nc32)c1`, the outcome in [1] was inactive. In addition, the EC50 in data set [2] came to 54.5 nM. Further, the Emax in data set [3] was -104%.

Regarding `COc1cccc(Cn2nc(CNCCc3ccc4ccccc4c3)c3c4cc(OC)c(OC)cc4c(-c4ccccc4Cl)nc32)c1`, the outcome in data set [1] was inactive. The EC50 in [2] came to 69.9 nM; in [8], 691 nM. For the same compound, the Emax in data set [3] is -97.2%. Also, in data set [10], the Ratio EC50 turned out to be 10.

`COc1ccc(CNCc2nn(Cc3cccc(OC)c3)c3nc(-c4ccccc4Cl)c4cc(OC)c(OC)cc4c23)cc1`: the result in [1] was inactive. The EC50 in [2] worked out at 103 nM. The Emax in [3] was -98.2%.

For `COc1cccc(Cn2nc(CNCCc3cccc(Oc4ccccc4)c3)c3c4cc(OC)c(OC)cc4c(-c4ccccc4Cl)nc32)c1`, the outcome in data set [1] was inactive. Also, in data set [2], the EC50 stood at 227 nM. Besides, the Emax in [3] was -81.9%.

Regarding `COc1cccc(Cn2nc(CNc3cccc(OC)c3)c3c4cc(OC)c(OC)cc4c(-c4ccccc4Cl)nc32)c1`, the outcome in data set [1], in data set [3] and in data set [5] was inactive.

Usually EC50 stands for the concentration giving half of the maximal effect. As a reminder, the Emax is the maximal effect, on the per cent scale that the assay sets. One may read the inhibition as the percentage by which the read-out fell short of the control. For orientation: IC50 means the concentration that inhibits the measured activity by half. A low value points to greater potency. As usually defined, the Ki is the dissociation constant of the complex between target and ligand, obtained from inhibition or displacement.
